Where “and” joins values, the source holds several entries; their conditions need not be identical. Equal values may be shown once.
Tests used:
Assay type in all cases: cell-based, human
CCR5 knockout T cells = assay: Growth time course with/without UMP or uridine; conditions: metabolite 250 μg/ml
Procedure: (§1) Genomic DNA was harvested using QUICKEXTRACT™ DNA Extraction Kit (Epicentre). Cells were counted on an automated cell counter using Trypan blue staining or on a CytoFLEX flow cytometer (Beckman Coulter) with automatic plate reader using COUNTBRIGHT™ beads (ThermoFisher) as a reference for normalizing the values. Alternatively, cells were analyzed after staining with fluorochrome-labelled antibodies (Biolegend) on an ACCURI™ C6 flow cytometer (BD Biosciences), which also measures volumes, or a FACS ARIA™ II SORP cell sorter (BD Biosciences). Data was analyzed using Excel (Microsoft) and FlowJo software (Tree Star).
(§2) T Cells were electroporated and edited as in Example 2 and allowed to recover for a 4-day period in medium with serum, uridine, and UMP. On day 4, cells were shifted to UMP, uridine, or uracil source media.
(§3) To evaluate whether the UMPS knockout leads to differential cell proliferation if cultured without the addition of Uridine or Uridine monophosphate (UMP), the cell counts in culture were followed over time by automatic cell counting with Trypan blue staining. UMPS knockout led to lower cell counts from day 2 after electroporation, compared to cells that were mock electroporated or electroporated using Cas9 targeting a different genomic locus (i.e., CCR5) (FIG. 5B).

Mock T cells = assay: Growth time course with/without UMP or uridine; conditions: metabolite 250 μg/ml
Procedure: as §1, §2, §3

UMPS^KO/KO hESCs = assay: Auxotrophy assay with different uridine concentrations; conditions: for Viable cell counts: day 4 after seeding
Procedure: The UMPS locus was disrupted in the hESCs by electroporation of Cas9 RNP and selection of a clone with InDels in exon 1 as evaluated by amplification and Sanger sequencing of the genomic locus. For gene editing, hESCs were treated with 10 μm ROCK inhibitor (Y-27632) for 24 hours before electroporation. Cells at 70-80% confluence were harvested with ACCUTASE® solution (Life Technologies). 500,000 cells were used per reaction with a SpCas9 concentration of 150 μg/mL (Integrated DNA Technologies) and a Cas9:sgRNA molar ratio of 1:3 and electroporation performed in P3 Primary Cell solution (Lonza) in 16-well NUCLEOCUVETTE™ Strips in the 4D NUCLEOFECTOR system (Lonza). Immediately after electroporation, cells were transferred into one well of a […]® protein mixture (Corning, Inc.)-coated 24 well plate containing 500 μl of mTeSR™ media ([…] Technologies) with 10 μM Y-27632. Media was changed 24 hours after editing and Y-27632 was removed 48 hours after.
An auxotrophy assay was performed over four days with different concentrations of uridine. Microscope photos of wells were taken on day 4 after seeding UMPS^KO/KO hESCs at similar densities and culturing in the presence of different uridine concentrations. […] Quantification of viable cells on day 4 after seeding to evaluate the effect of different uridine concentrations is shown in Table 15.

UMPS-WT Nalm6 cells = assay: Growth curves of Nalm6 cells with uridine; conditions: for Cell counts, Day 0 / Cell counts, Day 1 / Cell counts, Day 2 / Cell counts, Day 3 / Cell counts, Day 4 / Cell counts, Day 5 / Cell counts, Day 6 / Cell counts, Day 7: UMPS-WT
Procedure: (§4) The same experiment was performed with Nalm6 cells and a similar dependency on the uridine concentration in the culture was observed that was not visible for cells with intact UMPS. Table 25 provides data of growth curves of UMPS^KO/KO Nalm6 cells cultured with different uridine concentrations. No difference was observed between the groups receiving uridine supplement treatment and those not for wild-type cells.

UMPS^KO/KO Nalm6 cells = assay: Growth curves of Nalm6 cells with uridine; conditions: for Cell counts, Day 0 / Cell counts, Day 1 / Cell counts, Day 2 / Cell counts, Day 3 / Cell counts, Day 4 / Cell counts, Day 5 / Cell counts, Day 6 / Cell counts, Day 7: UMPS^KO/KO
Procedure: as §4

## O=c1ccn([C@@H]2O[C@H](CO)[C@@H](O)[C@H]2O)c(=O)[nH]1 [Uridine]
CCR5 knockout T cells
  Cell density, Day 1: 9.67E+05 cells per ml
  Cell density, Day 2: 1.71E+06 cells per ml
  Cell density, Day 4: 3.70E+06 cells per ml
  Cell density, Day 6: 3.92E+06 cells per ml
  Cell density, Day 8: 3.96E+06 cells per ml
Mock T cells
  Cell density, Day 1: 9.78E+05 cells per ml
  Cell density, Day 2: 1.98E+06 cells per ml
  Cell density, Day 4: 3.90E+06 cells per ml
  Cell density, Day 6: 4.91E+06 cells per ml
  Cell density, Day 8: 4.09E+06 cells per ml
UMPS^KO/KO hESCs; 2.5-250 μg/ml uridine
  proliferation (microscope photos, day 4): proliferated
UMPS^KO/KO hESCs; uridine 2.5 μg/ml
  Viable cell counts: 31040 and 38065 and 45189
UMPS^KO/KO hESCs; uridine 25 μg/ml
  Viable cell counts: 31810 and 39635 and 36283
UMPS^KO/KO hESCs; uridine 250 μg/ml
  Viable cell counts: 19147 and 31050 and 33955
UMPS-WT Nalm6 cells; 2.5 ug/ml uridine
  Cell counts, Day 0: 20052 and 19661 and 21142
  Cell counts, Day 1: 35088 and 34130 and 28986
  Cell counts, Day 2: 67340 and 38314 and 62598
  Cell counts, Day 3: 156019 and 153257 and 137812
  Cell counts, Day 4: 244368 and 225750 and 338624
  Cell counts, Day 5: 923391 and 1119256 and 1148582
  Cell counts, Day 6: 2017336 and 3269476
  Cell counts, Day 7: 3869992 and 6117085 and 6538953
UMPS-WT Nalm6 cells; 25 μg/ml uridine
  Cell counts, Day 0: 27548 and 19505 and 36496
  Cell counts, Day 1: 31847 and 39683 and 40000
  Cell counts, Day 2: 70922 and 70175 and 68027
  Cell counts, Day 3: 214190 and 194185 and 174292
  Cell counts, Day 4: 447240 and 311891 and 376249
  Cell counts, Day 5: 1413856 and 1173622 and 1216000
  Cell counts, Day 6: 3792593 and 2708995
  Cell counts, Day 7: 6320988 and 5746352 and 7585185
UMPS-WT Nalm6 cells; 250 μg/ml uridine
  Cell counts, Day 0: 17980 and 24390
  Cell counts, Day 1: 33784 and 40000
  Cell counts, Day 2: 59524 and 58737
  Cell counts, Day 3: 167715 and 160160
  Cell counts, Day 4: 303894 and 213547
  Cell counts, Day 5: 1163678 and 1115507
  Cell counts, Day 6: 3511660 and 3058542
  Cell counts, Day 7: 7293447
UMPS-WT Nalm6 cells; wild-type cells
  growth with vs without uridine supplement: No difference
UMPS^KO/KO Nalm6 cells; 2.5 μg/ml uridine
  Cell counts, Day 0: 20121 and 29155 and 28090
  Cell counts, Day 1: 42194 and 38023 and 40650
  Cell counts, Day 2: 69808 and 88300 and 87146
  Cell counts, Day 3: 70287 and 70547 and 78663
  Cell counts, Day 4: 80625 and 81737 and 79012
  Cell counts, Day 5: 193482 and 188952 and 193913
  Cell counts, Day 6: 380782 and 383866 and 377748
  Cell counts, Day 7: 755497 and 796763 and 793429
UMPS^KO/KO Nalm6 cells; 25 μg/ml uridine
  Cell counts, Day 0: 14984 and 18952 and 14400
  Cell counts, Day 1: 21277 and 25189 and 19688
  Cell counts, Day 2: 69085 and 68027 and 71301
  Cell counts, Day 3: 142944 and 176018 and 189125
  Cell counts, Day 4: 388585 and 324708 and 395062
  Cell counts, Day 5: 1624178 and 1360329
  Cell counts, Day 6: 3646724 and 3386243 and 3792593
  Cell counts, Day 7: 7293447 and 5746352 and 6538953
UMPS^KO/KO Nalm6 cells; 250 μg/ml uridine
  Cell counts, Day 0: 20704 and 24510 and 29762
  Cell counts, Day 1: 37175 and 35461 and 30769
  Cell counts, Day 2: 101781 and 106667 and 112045
  Cell counts, Day 3: 210805 and 265340 and 257649
  Cell counts, Day 4: 551249 and 564374
  Cell counts, Day 5: 2072099 and 2343280 and 1844675
  Cell counts, Day 6: 3792593 and 4514991 and 4122383
  Cell counts, Day 7: 7585185 and 6320988 and 7901235
UMPS^KO/KO Nalm6 cells; groups supplemented with uridine, especially 25 and 250 μg/ml
  growth: Significantly greater growth
